From US9394318B2, “Crystal polymorph of magnesium glycinate dihydrate and process for its preparation” (Cypress Pharmaceutical, Inc., priority 2012, dated 2016)

Legend:
[1] = 4.0 mL PBS + 20 mg binder, mixed 1 h at room temperature; hypothetical results; dihydrate
Procedure: Exemplary stock solutions suitable for phosphate-binding assays include the following: phosphate-binding solution (“PBS”) containing 10 mM KH2PO4, 30 mM Na2CO3, 80 mM NaCl, as described in Rosenbaum et al. Nephrol. Dial. Transplant. 12:961-964 (1997); acetate buffer (“AB”) solution containing 0.1N acetic acid, 0.025N sodium acetate, as described in Lowry & Lopez J. Biol. Chem. 162:421-428 (1946); ammonium molybdate (“AM”) solution containing 1% ammonium molybdate in 0.05N H2SO4, as described in Lowry & Lopez; ascorbic acid (“AA”) solution containing 1% ascorbic acid in H2O, as described in Lowry & Lopez.
In general, the phosphate-binding assays are conducted in 12×75 mm glass tubes. 4.0 mL PBS and 20 mg putative phosphate binder are added to a glass tube and then mixed for 1 h at room temperature. 0.1 mL supernatant is pipetted from this tube to a new test tube. 3.0 mL AB, 0.3 mL AA and 0.3 mL AM solutions are added and O.D. is measured at 700 nm after 10 minutes.
The phosphate binding capacity was calculated as follows (mcg stands for micrograms): ((O.D. of sample×95)/O.D. of standard)×40=(mcg)PO4 left in solution ((3800(mcg)PO4 left)×50)/1000=(mcg)PO4 bound per gram of phosphate binder.
The phosphate binding capacities of samples of magnesium glycinate dihydrate produced by the process of Example 1 are measured. X-ray powder diffraction is conducted on each of the samples to verify that they consist of the polymorph described in Example 2.

[2] = as described in the '012 application, cited from earlier work

| Compound | PO4 binding [1] | other results |
| --- | --- | --- |
| O=C1C[NH][Mg]2([OH])([OH])([NH]CC(=O)[O]2)[O]1 [Sample 1, magnesium glycinate dihydrate] | 175.0 mg/g | – |
| O=C1C[NH][Mg]2([OH])([OH])([NH]CC(=O)[O]2)[O]1 [Sample 2, magnesium glycinate dihydrate] | 177.0 mg/g | – |
| O=C1C[NH][Mg]2([OH])([OH])([NH]CC(=O)[O]2)[O]1 [Sample 3, magnesium glycinate dihydrate] | 176.2 mg/g | – |
| O=C1C[NH][Mg]2([OH])([OH])([NH]CC(=O)[O]2)[O]1 [Sample 4, magnesium glycinate dihydrate] | 178.1 mg/g | – |
| [Cl-].[Cl-].[Mg+2] [magnesium chloride] | – | ability to bind phosphate ([2]; formed from magnesium glycinate and stomach acid (HCl)): does not have the ability to bind phosphate in appreciable quantities |
| magnesium glycinate [magnesium glycinate salt] | – | ability to bind phosphate per gram ([2]; in vitro phosphate binding assay): at least 50 mg phosphate per gram |
